According to ChEMBL document CHEMBL4507277:

Assays:
Conditions in all cases: Compound concentration 10.0 uM
[1] = target: 5-hydroxytryptamine receptor 5A (Homo sapiens) (UniProt P47898)
[2] = target: Alpha-1A adrenergic receptor (Homo sapiens) (UniProt P35348)
[3] = target: Sigma intracellular receptor 2 (Homo sapiens) (UniProt Q5BJF2)
[4] = target: Polyunsaturated fatty acid lipoxygenase ALOX15 (Oryctolagus cuniculus) (UniProt P12530)
[5] = target: Serotonin 1 (5-HT1) receptor (Rattus norvegicus) (UniProt P28564+P30940+P19327+P28565)
[6] = target: Serotonin 2 (5-HT2) receptor (Rattus norvegicus) (UniProt P30994+P08909+P14842)
[7] = target: 5-hydroxytryptamine receptor 4 (Cavia porcellus) (UniProt O70528)
[8] = target: Polyunsaturated fatty acid 5-lipoxygenase (Homo sapiens) (UniProt P09917)
[9] = target: Adenosine receptor A1 (Homo sapiens) (UniProt P30542)
Adenosine receptor A1 (Homo sapiens), sequence (P30542 whole entry): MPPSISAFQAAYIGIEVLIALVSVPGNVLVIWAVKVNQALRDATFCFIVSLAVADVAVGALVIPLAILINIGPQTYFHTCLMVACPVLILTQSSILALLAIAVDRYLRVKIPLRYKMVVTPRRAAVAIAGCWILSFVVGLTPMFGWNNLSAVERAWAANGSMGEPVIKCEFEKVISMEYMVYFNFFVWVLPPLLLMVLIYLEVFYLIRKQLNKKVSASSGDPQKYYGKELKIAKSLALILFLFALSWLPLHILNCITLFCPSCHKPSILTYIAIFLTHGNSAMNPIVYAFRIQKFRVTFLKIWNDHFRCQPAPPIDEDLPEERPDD

[10] = target: Acetylcholinesterase (Homo sapiens) (UniProt P22303)
Acetylcholinesterase (Homo sapiens), sequence (P22303 whole entry): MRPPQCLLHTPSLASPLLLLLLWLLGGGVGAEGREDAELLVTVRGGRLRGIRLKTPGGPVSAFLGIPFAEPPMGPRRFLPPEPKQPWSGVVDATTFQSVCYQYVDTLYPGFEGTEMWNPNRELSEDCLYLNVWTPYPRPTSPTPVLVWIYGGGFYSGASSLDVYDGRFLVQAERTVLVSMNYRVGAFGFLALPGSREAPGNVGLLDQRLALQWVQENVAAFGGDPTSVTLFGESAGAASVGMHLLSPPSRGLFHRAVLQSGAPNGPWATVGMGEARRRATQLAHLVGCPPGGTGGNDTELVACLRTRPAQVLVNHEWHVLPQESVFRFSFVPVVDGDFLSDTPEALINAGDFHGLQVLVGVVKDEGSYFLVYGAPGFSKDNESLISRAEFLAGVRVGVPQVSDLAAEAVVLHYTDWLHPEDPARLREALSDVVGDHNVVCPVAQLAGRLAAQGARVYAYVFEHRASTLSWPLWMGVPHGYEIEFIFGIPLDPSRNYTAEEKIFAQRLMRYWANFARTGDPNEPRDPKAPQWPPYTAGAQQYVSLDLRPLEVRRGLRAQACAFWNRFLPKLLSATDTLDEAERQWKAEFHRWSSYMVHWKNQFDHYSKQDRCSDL

[11] = target: Adrenergic receptor alpha-1 (Rattus norvegicus) (UniProt P15823+P23944+P43140)
[12] = target: Adrenergic receptor alpha-2 (Rattus norvegicus) (UniProt P22086+P19328+P22909)
[13] = target: Angiotensin-converting enzyme (Oryctolagus cuniculus) (UniProt P12822)
[14] = target: Sodium/potassium-transporting ATPase subunit alpha-1 (Sus scrofa) (UniProt P05024)
[15] = target: Beta-2 adrenergic receptor (Rattus norvegicus) (UniProt P10608)
Beta-2 adrenergic receptor (Rattus norvegicus), sequence (P10608 whole entry, looked up): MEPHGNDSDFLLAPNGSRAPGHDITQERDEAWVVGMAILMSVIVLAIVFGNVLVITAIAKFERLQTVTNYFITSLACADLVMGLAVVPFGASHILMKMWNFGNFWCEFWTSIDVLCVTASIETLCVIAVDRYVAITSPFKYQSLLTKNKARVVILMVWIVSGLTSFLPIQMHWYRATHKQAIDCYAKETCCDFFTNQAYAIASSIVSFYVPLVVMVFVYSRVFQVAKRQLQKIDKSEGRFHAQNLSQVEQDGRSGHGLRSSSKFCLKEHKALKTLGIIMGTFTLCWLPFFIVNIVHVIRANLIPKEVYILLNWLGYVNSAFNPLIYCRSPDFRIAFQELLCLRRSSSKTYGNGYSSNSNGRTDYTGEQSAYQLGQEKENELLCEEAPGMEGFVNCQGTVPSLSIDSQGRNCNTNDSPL

[16] = target: Voltage-dependent N-type calcium channel subunit alpha-1B (Rattus norvegicus) (UniProt Q02294)
[17] = target: Carbonic anhydrase 6 (Homo sapiens) (UniProt P23280)
[18] = target: D(1A) dopamine receptor (Homo sapiens) (UniProt P21728)
D(1A) dopamine receptor (Homo sapiens), sequence (P21728 whole entry): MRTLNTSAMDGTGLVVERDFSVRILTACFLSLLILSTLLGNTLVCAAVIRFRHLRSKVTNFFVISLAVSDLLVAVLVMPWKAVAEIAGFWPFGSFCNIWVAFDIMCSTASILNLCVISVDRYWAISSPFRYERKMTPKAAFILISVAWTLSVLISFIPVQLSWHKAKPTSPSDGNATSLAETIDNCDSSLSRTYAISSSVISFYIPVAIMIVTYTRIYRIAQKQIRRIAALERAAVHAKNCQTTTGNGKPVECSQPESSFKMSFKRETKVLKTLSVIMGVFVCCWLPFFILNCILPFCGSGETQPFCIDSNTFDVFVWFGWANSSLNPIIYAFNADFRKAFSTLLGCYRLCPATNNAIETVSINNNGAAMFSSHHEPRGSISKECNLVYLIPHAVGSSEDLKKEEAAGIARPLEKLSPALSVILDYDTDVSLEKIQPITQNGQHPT

[19] = target: D(2) dopamine receptor (Homo sapiens) (UniProt P14416)
D(2) dopamine receptor (Homo sapiens), sequence (P14416 whole entry): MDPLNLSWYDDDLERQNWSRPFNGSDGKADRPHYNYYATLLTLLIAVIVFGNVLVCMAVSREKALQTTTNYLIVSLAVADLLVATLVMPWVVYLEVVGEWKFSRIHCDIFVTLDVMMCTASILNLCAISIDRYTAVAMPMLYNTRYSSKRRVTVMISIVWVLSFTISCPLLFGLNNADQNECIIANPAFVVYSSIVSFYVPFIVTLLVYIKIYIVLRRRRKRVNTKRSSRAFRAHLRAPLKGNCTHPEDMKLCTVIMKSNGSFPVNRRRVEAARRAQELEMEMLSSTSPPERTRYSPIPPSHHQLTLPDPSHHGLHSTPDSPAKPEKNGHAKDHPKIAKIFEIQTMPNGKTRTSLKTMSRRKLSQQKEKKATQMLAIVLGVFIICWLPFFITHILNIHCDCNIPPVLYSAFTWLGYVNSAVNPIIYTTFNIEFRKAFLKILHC

[20] = target: D(3) dopamine receptor (Homo sapiens) (UniProt P35462)
[21] = target: Neutrophil elastase (Homo sapiens) (UniProt P08246)
[22] = target: Nitric oxide synthase 3 (Bos taurus) (UniProt P29473)
[23] = target: Glutamate receptor ionotropic, NMDA 1 (Rattus norvegicus) (UniProt P35439)
[24] = target: Histamine H1 receptor (Homo sapiens) (UniProt P35367)
[25] = target: Potassium voltage-gated channel subfamily A member 1 (Rattus norvegicus) (UniProt P10499)
[26] = target: Leukotriene C4 synthase (Cavia porcellus) (UniProt A6XA80)
Leukotriene C4 synthase (Cavia porcellus), sequence (A6XA80 whole entry): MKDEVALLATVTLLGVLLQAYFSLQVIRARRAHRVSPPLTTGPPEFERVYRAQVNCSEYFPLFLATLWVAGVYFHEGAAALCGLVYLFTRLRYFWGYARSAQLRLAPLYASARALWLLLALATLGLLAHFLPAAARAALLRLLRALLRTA

[27] = target: Calpain-1 catalytic subunit (Homo sapiens) (UniProt P07384)
Calpain-1 catalytic subunit (Homo sapiens), sequence (P07384 whole entry): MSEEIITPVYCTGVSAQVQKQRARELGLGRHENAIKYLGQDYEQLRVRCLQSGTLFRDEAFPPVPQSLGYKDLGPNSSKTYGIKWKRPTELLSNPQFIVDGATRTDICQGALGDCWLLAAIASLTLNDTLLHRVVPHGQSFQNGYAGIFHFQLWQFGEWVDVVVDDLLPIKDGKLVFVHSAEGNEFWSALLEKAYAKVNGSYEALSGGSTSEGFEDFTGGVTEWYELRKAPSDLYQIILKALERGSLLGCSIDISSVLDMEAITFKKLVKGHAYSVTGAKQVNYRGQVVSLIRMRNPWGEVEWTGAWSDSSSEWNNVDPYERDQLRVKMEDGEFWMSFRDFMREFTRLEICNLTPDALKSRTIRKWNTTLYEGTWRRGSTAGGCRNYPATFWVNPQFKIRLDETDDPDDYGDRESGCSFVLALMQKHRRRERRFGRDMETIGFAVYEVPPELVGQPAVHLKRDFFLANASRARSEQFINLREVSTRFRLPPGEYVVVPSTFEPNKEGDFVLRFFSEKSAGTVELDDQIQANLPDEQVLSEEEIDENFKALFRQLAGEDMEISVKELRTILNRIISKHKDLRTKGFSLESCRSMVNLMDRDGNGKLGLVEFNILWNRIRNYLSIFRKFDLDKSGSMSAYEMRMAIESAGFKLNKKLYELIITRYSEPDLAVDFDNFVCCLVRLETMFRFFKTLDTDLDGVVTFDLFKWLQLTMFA

[28] = target: Muscarinic acetylcholine receptor (Rattus norvegicus) (UniProt P08482+P08483+P08485+P08911+P10980)
[29] = target: Acetylcholine receptor subunit alpha (Homo sapiens) (UniProt P02708)
[30] = target: Sodium-dependent noradrenaline transporter (Homo sapiens) (UniProt P23975)
[31] = target: Opioid receptor (Rattus norvegicus) (UniProt P33533+P34975+P33535)
[32] = target: cGMP-inhibited 3',5'-cyclic phosphodiesterase 3A (Homo sapiens) (UniProt Q14432)
[33] = target: 3',5'-cyclic-AMP phosphodiesterase 4A (Homo sapiens) (UniProt P27815)
[34] = target: Cathepsin G (Homo sapiens) (UniProt P08311)
[35] = target: Interstitial collagenase (Homo sapiens) (UniProt P03956)
[36] = target: Thromboxane-A synthase (Homo sapiens) (UniProt P24557)
[37] = target: 5-hydroxytryptamine receptor 1A (Homo sapiens) (UniProt P08908)
5-hydroxytryptamine receptor 1A (Homo sapiens), sequence (P08908 whole entry): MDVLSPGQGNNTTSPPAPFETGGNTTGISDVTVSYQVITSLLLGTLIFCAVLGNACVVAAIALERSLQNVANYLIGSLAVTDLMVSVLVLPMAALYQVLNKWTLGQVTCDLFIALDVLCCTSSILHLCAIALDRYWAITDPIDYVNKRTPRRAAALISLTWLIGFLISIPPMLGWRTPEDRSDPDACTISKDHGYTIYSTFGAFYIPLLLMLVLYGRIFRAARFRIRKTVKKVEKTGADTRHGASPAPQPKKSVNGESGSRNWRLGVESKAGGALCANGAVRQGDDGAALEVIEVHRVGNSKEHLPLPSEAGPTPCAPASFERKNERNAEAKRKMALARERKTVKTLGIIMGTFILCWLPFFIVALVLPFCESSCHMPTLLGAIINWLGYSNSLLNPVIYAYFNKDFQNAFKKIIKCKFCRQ

[38] = target: D(1A) dopamine receptor (Homo sapiens) (UniProt P21728); remark: listed apart in the source
[39] = target: D(2) dopamine receptor (Homo sapiens) (UniProt P14416); remark: listed apart in the source
[40] = target: Beta-1 adrenergic receptor (Homo sapiens) (UniProt P08588)
[41] = target: Muscarinic acetylcholine receptor M3 (Homo sapiens) (UniProt P20309)
Muscarinic acetylcholine receptor M3 (Homo sapiens), sequence (P20309 whole entry, looked up): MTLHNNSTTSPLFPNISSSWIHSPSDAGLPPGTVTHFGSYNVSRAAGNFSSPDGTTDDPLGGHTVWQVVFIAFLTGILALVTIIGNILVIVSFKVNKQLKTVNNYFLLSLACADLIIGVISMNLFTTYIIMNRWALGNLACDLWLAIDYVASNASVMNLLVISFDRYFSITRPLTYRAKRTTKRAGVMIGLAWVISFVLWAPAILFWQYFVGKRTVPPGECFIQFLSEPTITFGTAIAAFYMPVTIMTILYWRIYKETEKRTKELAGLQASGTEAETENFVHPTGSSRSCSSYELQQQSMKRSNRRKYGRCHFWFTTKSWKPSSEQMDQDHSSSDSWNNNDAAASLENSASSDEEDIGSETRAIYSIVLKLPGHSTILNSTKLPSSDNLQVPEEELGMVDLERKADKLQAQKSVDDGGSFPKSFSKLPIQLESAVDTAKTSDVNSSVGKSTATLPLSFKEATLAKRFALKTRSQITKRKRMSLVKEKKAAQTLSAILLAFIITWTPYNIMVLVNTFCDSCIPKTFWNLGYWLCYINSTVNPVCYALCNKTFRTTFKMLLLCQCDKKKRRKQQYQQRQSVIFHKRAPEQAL

Polyunsaturated fatty acid lipoxygenase ALOX15 (Oryctolagus cuniculus), sequence (P12530 whole entry): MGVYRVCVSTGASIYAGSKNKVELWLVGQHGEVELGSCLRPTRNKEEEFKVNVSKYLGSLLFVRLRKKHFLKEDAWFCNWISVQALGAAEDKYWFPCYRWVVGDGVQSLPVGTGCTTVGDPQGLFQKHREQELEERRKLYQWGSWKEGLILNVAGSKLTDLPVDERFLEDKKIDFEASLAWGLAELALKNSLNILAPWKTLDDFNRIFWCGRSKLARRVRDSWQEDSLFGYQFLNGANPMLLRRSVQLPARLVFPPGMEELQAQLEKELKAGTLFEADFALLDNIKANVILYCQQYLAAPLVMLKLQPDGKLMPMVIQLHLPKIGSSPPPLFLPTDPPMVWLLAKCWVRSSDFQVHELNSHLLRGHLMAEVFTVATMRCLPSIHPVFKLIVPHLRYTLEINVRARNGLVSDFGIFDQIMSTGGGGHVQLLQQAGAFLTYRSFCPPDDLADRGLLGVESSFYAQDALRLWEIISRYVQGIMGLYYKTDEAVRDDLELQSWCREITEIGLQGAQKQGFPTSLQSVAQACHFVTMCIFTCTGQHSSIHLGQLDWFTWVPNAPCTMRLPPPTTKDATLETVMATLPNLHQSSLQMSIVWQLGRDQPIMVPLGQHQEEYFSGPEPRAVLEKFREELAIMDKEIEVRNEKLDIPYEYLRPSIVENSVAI
Sigma intracellular receptor 2 (Homo sapiens), sequence (Q5BJF2 whole entry): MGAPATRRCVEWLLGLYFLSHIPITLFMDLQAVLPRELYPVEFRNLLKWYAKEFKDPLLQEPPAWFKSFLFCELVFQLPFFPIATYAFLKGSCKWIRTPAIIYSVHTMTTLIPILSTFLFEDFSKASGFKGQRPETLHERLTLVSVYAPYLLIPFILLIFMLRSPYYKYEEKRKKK

CCS(=O)(=O)c1cc2cc(C[C@](O)(CC(C)(C)c3ccc(F)cc3C(N)=O)C(F)(F)F)[nH]c2cn1
inactive: inhibition [1] 12.2% | inhibition [2] -0.31% | inhibition [3] 9.04% | residual activity [4] 89% | residual activity [5] 118% | residual activity [6] 94% | residual activity [7] 89% | residual activity [8] 79% | residual activity [9] 107% | residual activity [10] 91% | residual activity [11] 89% | residual activity [12] 106% | residual activity [13] 109% | residual activity [14] 115% | residual activity [15] 75% | residual activity [16] 96% | residual activity [17] 85% | residual activity [18] 92% | residual activity [19] 90% | residual activity [20] 81% | residual activity [21] 87% | residual activity [22] 85% | residual activity [23] 103% | residual activity [24] 100% | residual activity [25] 87% | residual activity [26] 104% | residual activity [27] 98% | residual activity [28] 103% | residual activity [29] 101% | residual activity [30] 102% | residual activity [31] 95% | residual activity [32] 82% | residual activity [33] 81% | residual activity [34] 104% | residual activity [35] 94% | residual activity [36] 93%

CCS(=O)(=O)c1cc2cc(C[C@@](O)(CC(C)(C)c3ccc(F)cc3C(N)=O)C(F)(F)F)[nH]c2cn1
inactive: inhibition [37] -7.37% | inhibition [38] 2.6% | inhibition [39] -8.41% | inhibition [40] -8.85% | inhibition [41] 1.25%
